Data taken from patent US11066383B2, “Inhibitors of indoleamine 2,3-dioxygenase and methods of their use” (BRISTOL-MYERS SQUIBB COMPANY, priority 2016, dated 2021).

target: T1, human IDO1 (Homo sapiens, UniProt P14902); test: HEK Human IDO-1 inhibition assay (kynurenine production in human IDO1/HEK293 cells); assay type: cell-based; conditions: read-out: Bio Activity (μM) IC50
T1 construct: expressed in transfected cells
Procedure: HEK293 cells were transfected with a pCDNA-based mammalian expression vector harboring human IDO1 cDNA (NM 002164.2) by electroporation. They were cultured in medium (DMEM with 10% FBS) containing 1 mg/ml G418 for two weeks. Clones of HEK293 cells that stably expressed human IDO1 protein were selected and expanded for IDO inhibition assay.
The human IDO1/HEK293 cells were seeded at 10,000 cells per 50 μL per well with RPMI/phenol red free media contains 10% FBS in a 384-well black wall clear bottom tissue culture plate (Matrix Technologies LLC) 100 nL of certain concentration of compound was then added to each well using ECHO liquid handling systems. The cells were incubated for 20 hours in 37° C. incubator with 5% CO2.
The compound treatments were stopped by adding trichloroacetic acid (Sigma-Aldrich) to a final concentration at 0.2%. The cell plate was further incubated at 50° C. for 30 minute. The equal volume supernatant (20 μL) and 0.2% (w/v) Ehrlich reagent (4-dimethylaminobenzaldehyde, Sigma-Aldrich) in glacial acetic acid were mixed in a new clear bottom 384-well plate. This plate was then incubated at room temperature for 30 minute. The absorbance at 490 nm was measured on Envision plate reader.
Compound IC50 values were calculated using the counts of 500 nM of a reference standard treatment as one hundred percent inhibition, and counts of no compound but DMSO treatment as zero percent inhibition.

T1 sequence (P14902 whole entry): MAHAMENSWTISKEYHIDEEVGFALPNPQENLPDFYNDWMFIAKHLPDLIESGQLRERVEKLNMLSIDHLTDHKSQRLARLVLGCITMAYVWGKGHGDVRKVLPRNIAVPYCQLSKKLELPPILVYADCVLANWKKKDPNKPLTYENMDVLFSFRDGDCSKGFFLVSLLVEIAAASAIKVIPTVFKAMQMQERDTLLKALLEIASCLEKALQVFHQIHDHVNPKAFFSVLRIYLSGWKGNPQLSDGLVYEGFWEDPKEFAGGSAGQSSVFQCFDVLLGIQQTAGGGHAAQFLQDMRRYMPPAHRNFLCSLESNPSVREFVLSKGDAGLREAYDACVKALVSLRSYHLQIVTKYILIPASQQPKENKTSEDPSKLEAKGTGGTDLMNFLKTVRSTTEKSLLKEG

IC50 | Compound
< 10 µM | CCCC(C(=O)NC12CC3CC(CC(C3)C1)C2)N1CCN(c2ccnc3ccc(F)cc23)CC1 (single isomer, unassigned) [Example 19-1]
< 0.1 µM | Cc1cc(Cl)ccc1CNC(=O)CC1(C)CCN(c2ccnc3ccc(F)cc23)CC1 [Example 1, N-(4-Chloro-2-methylbenzyl)-2-(1-(6-fluoroquinolin-4-yl)-4-methylpiperidin-4-yl)acetamide]
< 0.1 µM | CC1(CC(=O)NC2(c3ccc(Cl)cc3Cl)CC2)CCN(c2ccnc3ccc(F)cc23)CC1 [Example 2, N-(1-(2,4-dichlorophenyl)cyclo-propyl)-2-(1-(6-fluoroquinolin-4-yl)-4-methylpiperidin-4-yl)acetamide]
< 0.1 µM | CC1(CC(=O)NC(C)(C)c2ccc(Cl)cc2)CCN(c2ccnc3ccc(F)cc23)CC1 [Example 3, N-(2-(4-chlorophenyl)propan-2-yl)-2-(1-(6-fluoroquinolin-4-yl)-4-methylpiperidin-4-yl)acetamide]
< 0.1 µM | C[C@H](NC(=O)CC1(C)CCN(c2ccnc3ccc(F)cc23)CC1)c1ccc(Cl)cc1 [Example 4, (S)-N-(1-(4-chlorophenyl)ethyl)-2-(1-(6-fluoroquinolin-4-yl)-4-methylpiperidin-4-yl)acetamide]
< 1 µM | CC1(CC(=O)NCc2ccc(Cl)cc2)CCN(c2ccnc3ccc(F)cc23)CC1 [Example 5, N-(4-chlorobenzyl)-2-(1-(6-fluoroquinolin-4-yl)-4-methylpiperidin-4-yl)acetamide]
< 1 µM | CC[C@H](NC(=O)CC1(C)CCN(c2ccnc(C(F)(F)F)c2)CC1)c1ccccc1 [Example 6, (S)-2-(4-Methyl-1-(2-(trifluoromethyl)pyridin-4-yl)piperidin-4-yl)-N-(1-phenylpropyl)acetamide]
< 1 µM | CC1(CC(=O)NC2(c3ccc(Cl)cc3Cl)CC2)CCN(c2ccnc(C(F)(F)F)c2)CC1 [Example 7, N-(1-(2,4-dichlorophenyl)cyclo-propyl)-2-(4-methyl-1-(2-(trifluoro-methyl)pyridin-4-yl)piperidin-4-yl)acetamide]
< 10 µM | CC1(CC(=O)NC(C)(C)c2ccc(Cl)cc2)CCN(c2ccnc(C(F)(F)F)c2)CC1 [Example 8, N-(2-(4-chlorophenyl)propan-2-yl)-2-(4-methyl-1-(2-(trifluoromethyl)-pyridin-4-yl)piperidin-4-yl)acetamide]
< 1 µM | C[C@H](NC(=O)CC1(C)CCN(c2ccnc(C(F)(F)F)c2)CC1)c1ccc(Cl)cc1 [Example 9, (S)-N-(1-(4-chlorophenyl)ethyl)-2-(4-methyl-1-(2-(trifluoromethyl)-pyridin-4-yl)piperidin-4-yl)acetamide]
< 1 µM | C[C@@H](C(=O)NCc1ccccc1Cl)[C@H]1CC[C@@H](c2ccnc3ccc(F)cc32)CC1 [Example 10, (R)—N-(2-chlorobenzyl)-2-((cis)-4-(6-fluoroquinolin-4-yl)cyclohexyl)propanamide]
< 1 µM | C[C@@H](C(=O)NCc1ccc(-c2ccccc2)cc1)[C@H]1CC[C@@H](c2ccnc3ccc(F)cc32)CC1 [Example 12, (R)-N-([1,1′-biphenyl]-4-ylmethyl)-2-((cis)-4-(6-fluoroquinolin-4-yl)cyclohexyl)propanamide]
< 1 µM | C[C@H](NC(=O)[C@H](C)[C@H]1CC[C@@H](c2ccnc3ccc(F)cc32)CC1)c1ccccc1 [Example 13, (R)-2-((cis)-4-(6-fluoroquinolin-4-yl)cyclohexyl)-N-((S)-1-phenylethyl)propanamide]
< 0.1 µM | C[C@H](NC(=O)[C@H](C)[C@H]1CC[C@@H](c2ccnc3ccc(F)cc32)CC1)c1ccc(Cl)cc1 [Example 14, (R)-N-((S)-1-(4-chlorophenyl)ethyl)-2-((cis)-4-(6-fluoroquinolin-4-yl)cyclohexyl)propanamide]
< 1 µM | C[C@@H](C(=O)NC(C)(C)c1ccc(Cl)cc1)[C@H]1CC[C@@H](c2ccnc3ccc(F)cc32)CC1 [Example 15, (R)-N-(2-(4-chlorophenyl)propan-2-yl)-2-((cis)-4-(6-fluoroquinolin-4-yl)cyclohexyl)propanamide]
< 1 µM | C[C@@H](C(=O)NC1(c2ccc(Cl)cc2Cl)CC1)[C@H]1CC[C@@H](c2ccnc3ccc(F)cc32)CC1 [Example 16, (R)-N-(1-(2,4-dichlorophenyl)cyclopropyl)-2-((cis)-4-(6-fluoroquinolin-4-yl)cyclohexyl)propanamide]
< 10 µM | C[C@@H](NC(=O)[C@H](C)[C@H]1CC[C@@H](c2ccnc3ccc(F)cc32)CC1)c1ccc(Cl)cc1 [Example 17, (R)-N-((R)-1-(4-chlorophenyl)ethyl)-2-((1s,4S)-4-(6-fluoroquinolin-4-yl)cyclohexyl)propanamide]
< 10 µM | C[C@@H](C(=O)NCc1ccccc1)[C@H]1CC[C@@H](c2ccnc3ccc(F)cc32)CC1 [Example 18]
< 0.1 µM | CC1(CC(=O)NC23CC4CC(CC(C4)C2)C3)CCN(c2ccnc3ccc(F)cc23)CC1 [Example 22, N-((3s,5s,7s)-Adamantan-1-yl)-2-(1-(6-fluoroquinolin-4-yl)-4-methylpiperidin-4-yl)acetamide]
< 1 µM | CC1(CC(=O)N[C@@]23C[C@@H]4C[C@@H](C[C@@](O)(C4)C2)C3)CCN(c2ccnc3ccc(F)cc23)CC1 [Example 23, 2-(1-(6-Fluoroquinolin-4-yl)-4-methylpiperidin-4-yl)-N-((1r,3s,5R,7S)-3-hydroxyadamantan-1-yl)acetamide]
